Where two headings read alike, the source gives them in different places.
Tests used:
[1] = biological target: T1, CYP1A2 (Rattus norvegicus, UniProt P04799); experiment: Lignan metabolism in rat liver microsomes with furafylline; format: in vitro ADME; settings: 5 μM, + Furafylline 50 μM (CYP1A2)
T1 sequence (P04799 1-513): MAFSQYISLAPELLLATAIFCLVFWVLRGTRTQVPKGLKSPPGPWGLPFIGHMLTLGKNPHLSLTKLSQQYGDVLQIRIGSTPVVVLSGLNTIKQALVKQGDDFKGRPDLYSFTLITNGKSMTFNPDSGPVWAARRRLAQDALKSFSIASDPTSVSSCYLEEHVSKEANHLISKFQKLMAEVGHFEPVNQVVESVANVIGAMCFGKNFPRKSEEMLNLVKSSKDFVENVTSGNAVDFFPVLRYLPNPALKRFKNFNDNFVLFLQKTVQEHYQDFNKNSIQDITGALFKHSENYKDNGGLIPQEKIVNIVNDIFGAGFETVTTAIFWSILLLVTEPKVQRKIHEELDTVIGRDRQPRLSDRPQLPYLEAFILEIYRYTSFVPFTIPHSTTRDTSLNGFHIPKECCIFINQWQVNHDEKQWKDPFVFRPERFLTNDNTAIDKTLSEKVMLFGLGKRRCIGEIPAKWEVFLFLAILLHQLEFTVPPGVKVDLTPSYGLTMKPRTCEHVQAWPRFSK
Protocol: (§1) The CYP450s involved in the metabolism of schisandrin, schisantherin A, deoxyshisandrin and γ-schisandrin in rat or human liver microsomes were confirmed by comparison of the metabolism ratio before and after the addition of selective inhibitors to CYP450 isozymes. […] The supernate was injected to HPLC-MS for analysis of the four lignans.

[2] = Transport across Caco-2 cell monolayer; format: in vitro ADME; settings: human, Caco-2; for efflux ratio at 2 h, 5 μM / efflux ratio at 2 h, 10 μM / efflux ratio at 2 h, 50 μM: ER = Papp (BL → AP)/Papp(AP → BL)
Protocol: Caco-2 cell (passage 38) was used in the transport experiments. Cells were seeded on polycarbonate filters (12 mm diameter, pore size […]) at 1 × 10^5/cm^2. The cell monolayer was formed 21 days post seeding when the transepithelial electrical resistance (TEER) was above 1,000 Ω• cm^2. Three concentration levels (5, 10, and 50 μM) were set for the four schisandra lignans in the study. After preincubation for 1 h at 37°C, the solution of the four lignans was respectively added to the apical (0.4 mL) or basolateral (0.6 mL) chamber for absorptive (AP → BL) and secretive (BL → AP) permeability test. At the specified timepoints (0.5, 1, 1.5 and 2 h), 50 μL samples (n = 3) were withdrawn from receiver chamber, and meanwhile, 50 μL fresh buffer was added. The four lignans were determined by HPLC-MS method.
The efflux rate (ER) was calculated by the formula ER = Papp (BL → AP)/Papp(AP → BL).

[3] = Identification of CYP450 isozymes in lignan metabolism, rat liver microsomes (no inhibitor / overall); format: in vitro ADME; settings: for Metabolism rate: rat liver microsomes 1 mg/mL, 5 μM, Control (no inhibitor); for CYP450 isozymes participated in the metabolism (≥20% inhibition): rat liver microsomes incubation with selective inhibitors
Protocol: as §1

[4] = Identification of CYP450 isozymes in lignan metabolism, human liver microsomes (no inhibitor); format: in vitro ADME; settings: human liver microsomes 0.5 mg/mL, 5 μM, Control (no inhibitor)
Protocol: as §1

[5] = In situ hepatic perfusion of four lignans; format: in vivo, rat; settings: Sprague-Dawley, rat, perfusate, perfusate AUC(0−1h), n = 3
Protocol: (§2) In situ liver perfusion was performed similarly as the method described previously (Uraki et al., [2016]). […] The perfusate consisted of Krebs–Hensleit buffer (pH 7.4) containing sodium taurocholate (4.75 mg/L), 1% bovine serum albumin, and glucose (1.2 g/L) was oxygenated using carbogen, 95% O2/5% CO2. The perfusate at 37°C was infused into the portal vein at a flow rate of 30 mL/min in a recirculatory manner. After 10-min equilibration, four schisandra lignans were added to the reservoir (final concentration of 10 μM). Perfusate (0.5 mL) and bile samples were collected at 0, 10, 20, 30, 40, 50, and 60 min after the addition of lignans. The same volume of blank perfusion buffer was immediately added to the reservoir after collection of the perfusate samples. After hepatic perfusion, rat was sacrificed and liver was removed, blotted dry, and weighed.

[6] = test system: rat liver; experiment: In situ hepatic perfusion of four lignans; format: in vivo; settings: hepatic perfusion 60 min, 10 μM, n = 3
Protocol: as §2

[7] = test system: CYP3A4/5; experiment: Lignan metabolism in human liver microsomes with ketoconazole; format: in vitro ADME; settings: 5 μM
Protocol: as §1

[8] = Pharmacokinetics of four lignans in rats after oral SC alcoholic extract; format: in vivo, rat; settings: for AUC(0-t) / Cmax / half-life / CL/F / MRT last / Tmax: Sprague-Dawley, rat, plasma, po, 1.5 g/kg/day, oral SC alcoholic extract 1.5 g/kg/day for 4 days, n = 5; for CL/F: read-out: CLz/F (converted); for MRT last: read-out: MRT(0−t); for Tmax: read-out: Tmax
Protocol: The pharmacokinetic profiles of four lignans were studied in ALI rat after multiple oral administrations of SC alcoholic extract at dose of 1.5 g/kg/day. After the ALI rat was established, SC alcoholic extract suspended in 0.5% sodium carboxymethyl cellulose was given to ALI rats and the control via oral gavage once a day for 4 consecutive days. Before the last dosing, rats were fasted for 12 h while water was taken freely. Blood samples were collected at 0, 0.25, 0.5, 1, 2, 3, 4, 6, 8, 12, 24, 36, and 48 h after the last dosing. A cannula was surgically placed into the jugular vein for collection of blood samples (about 0.1 mL) and blood loss compensation using sterile isotonic saline in the pharmacokinetic study. Plasma was separated by centrifugation and stored at −20°C until analysis. Plasma concentrations of the four lignans were quantified using HPLC-MS analysis developed according to the reported method (Wang et al., [2008]).
Data fitting and pharmacokinetic parameter calculations were carried out using the Winnolin software. Non-compartmental analysis was used to calculate the pharmacokinetic parameters. Parameters, such as AUC and MRT, were calculated using statistical moment method.

[9] = test system: CYP3A; experiment: Lignan metabolism in rat liver microsomes with ketoconazole; format: in vitro ADME; settings: 5 μM, + Ketoconazole 100 μM (CYP3A)
Protocol: as §1

Row | SMILES | Metabolism rate [1] [nmol/min/mg] | Papp A→B at 2 h, 5 μM [2] [×10⁻⁶ cm/s] | Papp B→A at 2 h, 5 μM [2] [×10⁻⁶ cm/s] | efflux ratio at 2 h, 5 μM [2] | Papp A→B at 2 h, 10 μM [2] [×10⁻⁶ cm/s] | Papp B→A at 2 h, 10 μM [2] [×10⁻⁶ cm/s] | efflux ratio at 2 h, 10 μM [2] | Papp A→B at 2 h, 50 μM [2] [×10⁻⁶ cm/s] | Papp B→A at 2 h, 50 μM [2] [×10⁻⁶ cm/s] | efflux ratio at 2 h, 50 μM [2] | Metabolism rate [3] [nmol/min/mg] | CYP450 isozymes participated in the metabolism (≥20% inhibition) [3] | Metabolism rate [4] [nmol/min/mg] | AUC at 10 μM ([5]; pH 7.4, CCl4-intoxicated rats) [ng·h/mL] | AUC at 10 μM ([5]; pH 7.4, Control rats) [ng·h/mL] | Total amount of analyte in bile ([6]; CCl4-intoxicated rats) [µg] | Total amount of analyte in liver ([6]; CCl4-intoxicated rats) [µg] | Total amount of analyte in bile ([6]; Control rats) [µg] | Total amount of analyte in liver ([6]; Control rats) [µg] | Metabolism rate [7] [nmol/min/mg] | further results
1 | COc1cc2c(c(OC)c1OC)-c1c(cc(OC)c(OC)c1OC)C[C@H](C)[C@@H](C)C2 [Deoxyshisandrin, deoxyshisandrin] | 85.2 ± 7.6 | 1.17 ± 0.13 | 1.67 ± 0.14 | 1.42 | 1.16 ± 0.04 | 1.52 ± 0.16 | 1.31 | 1.24 ± 0.17 | 1.71 ± 0.51 | 1.38 | 87.5 ± 7.8 | CYP2C11, CYP2D2, CYP2E1, and CYP3A | 162.5 ± 15.6 | 3620 ± 100 | 3090 ± 120 | 0.75 ± 0.07 | 14.57 ± 2.41 | 1.29 ± 0.30 | 9.71 ± 1.32 | 38.2 ± 4.3 | Reduction of systemic clearance (CLz/F) ([8]; CCl4 intoxicated rats vs control rats): ~56%; AUC(0-t) ([8]; CCl4-intoxicated rats): 16400 ± 5020 ng·h/mL; Cmax ([8]; CCl4-intoxicated rats): 775 ± 239 ng/mL; half-life ([8]; CCl4-intoxicated rats): 13.1 ± 1.78 h; CL/F ([8]; CCl4-intoxicated rats): 35.5 mL/min/kg; MRT last ([8]; CCl4-intoxicated rats): 16.4 ± 1.02 h; Tmax ([8]; CCl4-intoxicated rats): 5.8 ± 2.86 h; AUC(0-t) ([8]; Control (normal) rats): 7880 ± 2810 ng·h/mL; Cmax ([8]; Control (normal) rats): 564 ± 318 ng/mL; half-life ([8]; Control (normal) rats): 11.5 ± 2.08 h; CL/F ([8]; Control (normal) rats): 80 mL/min/kg; MRT last ([8]; Control (normal) rats): 11.7 ± 0.97 h; Tmax ([8]; Control (normal) rats): 5 ± 2.24 h; Metabolism rate [9]: 20.0 ± 1.6 nmol/min/mg
2 | COc1cc2c(c(OC)c1OC)-c1c(cc(OC)c(OC)c1OC)C[C@](C)(O)[C@@H](C)C2 [Schisandrin, schisandrin] | 215.1 ± 26.5 | 2.15 ± 0.56 | 3.31 ± 0.59 | 1.54 | 1.86 ± 0.17 | 2.03 ± 0.11 | 1.09 | 1.93 ± 0.2 | 2.12 ± 0.17 | 1.1 | 233.3 ± 35.6 | CYP2C6/11, CYP2E1, and CYP3A | 263.4 ± 22.5 | 3860 ± 70 | 3230 ± 110 | 1.06 ± 0.14 | 19.55 ± 2.07 | 1.15 ± 0.27 | 11.19 ± 1.18 | 176.7 ± 27.6 | AUC(0-t) ([8]; CCl4-intoxicated rats): 74700 ± 26300 ng·h/mL; Cmax ([8]; CCl4-intoxicated rats): 3980 ± 1530 ng/mL; half-life ([8]; CCl4-intoxicated rats): 7.74 ± 1.21 h; CL/F ([8]; CCl4-intoxicated rats): 6.61 mL/min/kg; MRT last ([8]; CCl4-intoxicated rats): 12.8 ± 0.25 h; Tmax ([8]; CCl4-intoxicated rats): 6.2 ± 2.05 h; AUC(0-t) ([8]; Control (normal) rats): 19800 ± 7490 ng·h/mL; Cmax ([8]; Control (normal) rats): 1370 ± 617 ng/mL; half-life ([8]; Control (normal) rats): 10.1 ± 4.12 h; CL/F ([8]; Control (normal) rats): 24.3 mL/min/kg; MRT last ([8]; Control (normal) rats): 11.1 ± 0.97 h; Tmax ([8]; Control (normal) rats): 6 h; Metabolism rate [9]: 172.9 ± 8.6 nmol/min/mg

Source: PMC5861220, “The Cytochrome P450-Mediated Metabolism Alternation of Four Effective Lignans From Schisandra chinensis in Carbon Tetrachloride-Intoxicated Rats and Patients With Advanced Hepatocellular Carcinoma” (Frontiers in Pharmacology, 2018)
